Results on 48 compounds are retold here after US20250213558A1, “T-TYPE CALCIUM CHANNEL MODULATORS COMPRISING A PIPERAZINE OR 1,4-DIAZEPANE CORE AND METHODS OF USE THEREOF” (Praxis Precision Medicines, Inc., priority 2022, published 2025).

Molecules are shown by their SMILES. Like-named read-outs stand apart in the source and are kept apart here.

In the assay the target is T1, Human Cav3.1 calcium channel (Homo sapiens, UniProt O43497).
T1 construct: expressed in transfected cells; host or cells: HEK-293 natClytin/TASK1+Cav3.1 cell line
Put plainly: Human Cav3.1 calcium channel patch clamp assay (SyncroPatch 384PE; single point and IC50, voltage dependent block). It is filed as cell-based. To be noted: for % Inhibition (Single Point Data): patch clamp. The procedure:
Certain compounds (as indicated) were tested for Human Cav3.1 calcium channel activity via a patch clamp assay as disclosed herein.
Pulse generation and data collection were performed with PatchController384 V1.3.0 and DataController384 V1.2.1 (Nanion Technologies). Offline analysis was performed using Excel and Graphpad Prism (V 8.4.2) with complete data files uploaded to Dotmatics. The access resistance and apparent membrane capacitance were estimated using built-in protocols. Current was recorded in whole cell configuration from a population of cells. The cells were lifted, triturated, and resuspended at 800,000 cells/ml. The cells were allowed to recover in the cell hotel prior to experimentation. Currents were recorded at room temperature. The external solution contained the following (in mM): NaCl 80, NMDG 60, KCl 4, MgCl2 1, CaCl2 6, glucose 5 and HEPES 10 (pH=7.4, Osmolarity˜300 mOsm). The extracellular solution was used as the wash, reference and compound delivery solution.
The compound plate was created at 2× concentrated in the extracellular solution. The compound was diluted to 1:2 when added to the recording well. The amount of DMSO in the extracellular solution was held constant at the level used for the highest tested concentration. For the voltage clamp experiments on Cav3.1, data were sampled at 10 KHz. After establishment of the seal and the passage in the whole cell configuration, the cells were held at −120 mV. Cav3.1 current was evoked using a 100 ms step to −20 mV (to measure resting state block), followed by a 1600 ms step to −65 mV and a second 100 ms step to −20 mV (to measure voltage dependent block). The voltage protocol was applied every 15 seconds in the absence and in the presence of the compounds under investigation. […] Current amplitude (pA) was measured in the peak 1 and 2. The average of last 3 sweeps of each liquid period (vehicle, compound under investigation, full block) was calculated. Nickel-sensitive current was used to calculate the % of inhibition in the presence of the compound under investigation.

The mark [1] stands for this setting: Testing Conc 1.25, HEK-293 natClytin/TASK1+Cav3.1 cell line.
Where [2] appears, read: voltage dependent block (VDB), HEK-293 natClytin/TASK1+Cav3.1 cell line, read-out: Cav3.1 IC50.
Setting [3] is: Testing Conc 1, HEK-293 natClytin/TASK1+Cav3.1 cell line.

T1 sequence (O43497 whole entry): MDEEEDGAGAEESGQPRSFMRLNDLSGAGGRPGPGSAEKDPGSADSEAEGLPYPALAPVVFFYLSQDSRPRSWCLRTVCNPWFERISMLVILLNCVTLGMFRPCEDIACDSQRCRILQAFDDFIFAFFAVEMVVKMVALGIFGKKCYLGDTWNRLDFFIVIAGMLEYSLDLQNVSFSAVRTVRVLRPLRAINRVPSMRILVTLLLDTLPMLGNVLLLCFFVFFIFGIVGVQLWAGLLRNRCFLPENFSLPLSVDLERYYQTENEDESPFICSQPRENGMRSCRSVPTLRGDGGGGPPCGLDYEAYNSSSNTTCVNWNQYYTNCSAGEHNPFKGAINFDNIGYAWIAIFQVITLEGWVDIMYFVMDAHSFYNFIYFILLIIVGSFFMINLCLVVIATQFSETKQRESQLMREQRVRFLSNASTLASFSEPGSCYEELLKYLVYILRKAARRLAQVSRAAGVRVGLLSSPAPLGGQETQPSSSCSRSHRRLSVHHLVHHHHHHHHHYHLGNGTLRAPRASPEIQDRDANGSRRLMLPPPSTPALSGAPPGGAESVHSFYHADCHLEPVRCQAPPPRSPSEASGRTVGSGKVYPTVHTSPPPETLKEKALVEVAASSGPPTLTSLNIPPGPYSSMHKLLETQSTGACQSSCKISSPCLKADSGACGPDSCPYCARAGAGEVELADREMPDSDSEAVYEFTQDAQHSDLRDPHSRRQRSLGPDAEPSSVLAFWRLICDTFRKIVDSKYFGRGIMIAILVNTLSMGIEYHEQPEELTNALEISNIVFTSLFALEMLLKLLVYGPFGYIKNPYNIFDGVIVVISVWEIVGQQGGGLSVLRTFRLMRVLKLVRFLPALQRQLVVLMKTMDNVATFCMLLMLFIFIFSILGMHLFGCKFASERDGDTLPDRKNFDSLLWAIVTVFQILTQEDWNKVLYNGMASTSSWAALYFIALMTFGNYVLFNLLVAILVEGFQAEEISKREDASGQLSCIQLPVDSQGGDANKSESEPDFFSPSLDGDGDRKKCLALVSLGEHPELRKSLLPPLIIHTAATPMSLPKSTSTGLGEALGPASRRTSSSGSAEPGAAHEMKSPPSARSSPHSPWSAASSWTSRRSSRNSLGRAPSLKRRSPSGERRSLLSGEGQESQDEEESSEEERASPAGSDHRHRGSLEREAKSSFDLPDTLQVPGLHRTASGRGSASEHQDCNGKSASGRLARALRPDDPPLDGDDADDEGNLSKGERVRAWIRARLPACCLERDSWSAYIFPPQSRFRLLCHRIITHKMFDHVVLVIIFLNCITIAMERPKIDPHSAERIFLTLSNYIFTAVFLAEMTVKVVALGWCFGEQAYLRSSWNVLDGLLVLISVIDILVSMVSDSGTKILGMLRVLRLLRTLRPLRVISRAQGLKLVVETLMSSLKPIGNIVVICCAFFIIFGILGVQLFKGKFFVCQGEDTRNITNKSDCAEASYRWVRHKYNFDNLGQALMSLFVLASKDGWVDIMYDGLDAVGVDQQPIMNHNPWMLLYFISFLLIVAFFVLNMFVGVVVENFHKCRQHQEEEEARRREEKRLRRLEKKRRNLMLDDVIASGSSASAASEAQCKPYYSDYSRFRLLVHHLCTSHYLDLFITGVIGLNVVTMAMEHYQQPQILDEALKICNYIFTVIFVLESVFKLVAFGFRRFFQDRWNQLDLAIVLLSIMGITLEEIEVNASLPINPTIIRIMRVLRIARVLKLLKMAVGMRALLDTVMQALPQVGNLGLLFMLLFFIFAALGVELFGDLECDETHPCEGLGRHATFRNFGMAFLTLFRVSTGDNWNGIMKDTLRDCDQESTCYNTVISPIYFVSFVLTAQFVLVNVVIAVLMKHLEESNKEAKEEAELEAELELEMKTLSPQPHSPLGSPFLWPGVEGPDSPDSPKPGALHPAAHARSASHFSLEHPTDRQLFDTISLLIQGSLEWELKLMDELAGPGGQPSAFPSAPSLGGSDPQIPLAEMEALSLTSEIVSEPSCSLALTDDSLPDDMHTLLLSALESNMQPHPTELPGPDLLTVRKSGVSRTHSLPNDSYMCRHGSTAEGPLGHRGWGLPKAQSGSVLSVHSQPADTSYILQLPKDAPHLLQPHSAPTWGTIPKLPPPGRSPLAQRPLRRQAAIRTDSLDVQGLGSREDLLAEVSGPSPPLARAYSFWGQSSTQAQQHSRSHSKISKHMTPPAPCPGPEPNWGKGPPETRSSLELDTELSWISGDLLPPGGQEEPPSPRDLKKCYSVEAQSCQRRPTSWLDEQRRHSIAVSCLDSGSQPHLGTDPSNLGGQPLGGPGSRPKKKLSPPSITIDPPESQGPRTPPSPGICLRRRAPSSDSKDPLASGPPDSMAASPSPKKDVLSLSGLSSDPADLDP

In the case of `CC(c1nc2c(Cl)cc(F)cc2[nH]1)N1CC2CCC(C1)N2CC(=O)NC(C)(C)C` (stereo not shown) [Compound 201], the IC50 (commonly the midpoint of a concentration-inhibition curve) came to 84.2 nM. For the same compound, the “% Inhibition (Single Point Data)” value under setting [1] stood at 95.763%.

`Fc1cc(Cl)c2nc(CN3CCN(CCC4CCCC4)CC3)[nH]c2c1` [Compound 71]: under setting [1], the “% Inhibition (Single Point Data)” value stood at 94.005%.

On to `CC(C)(NC(=O)CN1CC2CC1CN2CC(=O)Nc1cc(F)cc(Cl)c1)C(F)(F)F` (stereo not shown) [Compound 47], for which the “% Inhibition (Single Point Data)” value under setting [1] is recorded as 89.371%. The IC50 under setting [2] stood at 33.7 nM. The matching figures for `CC(C)(C)NC(=O)CN1C[C@@H]2C[C@H]1CN2CCNC(=O)C12CC3CC(CC(C3)C1)C2` [Compound 323]: 17.66% and 3390 nM. The matching figures for `COc1cccc(CN2CCN(Cc3nc4c(Cl)cc(F)cc4[nH]3)CC2)c1` [Compound 66]: 88.018% and 306 nM. On the same counts, the results for `Cc1cc(F)cc2[nH]c(CN3CC4CC(C3)N4CCC3CCOCC3)nc12` [Compound 205] are 16.681% and 4680 nM. Consider `COc1cc(F)cc(NC(=O)CN2C[C@@H]3C[C@H]2CN3CC(=O)NC(C)(C)C)c1` [Compound 275], for which the “% Inhibition (Single Point Data)” value under setting [1] is given as 93.716%.

In the case of `COc1cc(NC(=O)CN2CC3CC(C2)N3CC(=O)NC(C)(C)C)ccc1F` [Compound 248], the “% Inhibition (Single Point Data)” value under setting [1] was 64.348%. Further, under setting [2], the IC50 stood at 530 nM.

For the compound `N#CC1(CN2C3CC2CN(Cc2nc4c(Cl)ccc(F)c4[nH]2)C3)CCCCC1` [Compound 178], the “% Inhibition (Single Point Data)” value under setting [1] is given as 43.012%. Under setting [2], the IC50 turned out to be 1390 nM.

As to `Fc1cc(Cl)c2nc(CN3CC4CCC(C3)N4CCOC3CCCCC3)[nH]c2c1` [Compound 95], the “% Inhibition (Single Point Data)” value under setting [1] turned out to be 100.41%.

Turning to `CC(C)(C)NC(=O)CN1C[C@H]2C[C@@H]1CN2CC(=O)NC12CC3CC(CC(C3)C1)C2` [Compound 261], the “% Inhibition (Single Point Data)” value under setting [1] was 70.332%. The IC50 under setting [2] turned out to be 518 nM.

With `O=C(CN1C[C@@H]2C[C@H]1CN2CC(=O)NC1(C(F)(F)F)CC1)Nc1cc(F)cc(OC(F)F)c1` [Compound 324], the “% Inhibition (Single Point Data)” value under setting [1] stood at 100.07%.

For the compound `Cc1ccc(NC(=O)CN2C[C@@H]3C[C@H]2CN3CC(=O)NC(C)(C)C)cc1Cl` [Compound 362], under setting [2], the IC50 was 371 nM. `CC(C)(C)OC(=O)CN1C2CC1CN(Cc1nc3c(Cl)cc(F)cc3[nH]1)C2` [Compound 139]: the “% Inhibition (Single Point Data)” value under setting [1] amounted to 92.564%. In addition, under setting [2], the IC50 is 153 nM.

As for `Cc1ccc(F)c2[nH]c(CN3CC4CC(C3)N4CC(=O)NC(C)(C)C)nc12` [Compound 207], the “% Inhibition (Single Point Data)” value under setting [1] is given as 97.657%. The IC50 under setting [2] was determined as 121 nM.

For the compound `COc1cc(NC(=O)CN2CC3CC(C2)N3CC(=O)NC(C)(C)C)cc(F)c1F` [Compound 353], the IC50 under setting [2] is 97 nM. In the case of `CC(C)(C)NC(=O)CN1C2CC1CN(CC(=O)Nc1cc(F)ccc1Cl)C2` [Compound 213], under setting [1], the “% Inhibition (Single Point Data)” value turned out to be 27.718%. Turning to `Fc1cc(Cl)c2nc(CN3CCN(Cc4ccc5c(c4)OCCO5)CC3)[nH]c2c1` [Compound 68], the “% Inhibition (Single Point Data)” value under setting [1] is given as 87.04%. For the same compound, the IC50 under setting [2] amounted to 215 nM. In the case of `CC(c1nc2c(Cl)cc(F)cc2[nH]1)N1CC2CC(C1)N2CC(=O)NC(C)(C)C` (stereo not shown) [Compound 200], the “% Inhibition (Single Point Data)” value under setting [1] worked out at 93.175%. As to `O=C(CN1CC2CC1CN2CCNC(=O)C1(C(F)(F)F)CCC1)Nc1ccc(F)c(Cl)c1` (stereo not shown) [Compound 19], the “% Inhibition (Single Point Data)” value under setting [1] worked out at 84.472%. Further, the IC50 under setting [2] was 251 nM.

As for `CC(C)(C)NC(=O)CN1C2CC1CN(CC(=O)NC13CC4CC(CC(C4)C1)C3)C2` [Compound 258], under setting [1], the “% Inhibition (Single Point Data)” value stood at 91.927%. Besides, the IC50 under setting [2] turned out to be 410 nM. As to `CC1(C)CN(C(=O)CN2C3CCC2CN(Cc2nc4c(Cl)cc(F)cc4[nH]2)C3)C1` [Compound 91], the “% Inhibition (Single Point Data)” value under setting [1] was 97.882%. On the same count and under the same terms, the same measure for `O=C(CN1CC2CC(C1)N2CC(F)(F)C1CCCCC1)Nc1cc(F)cc(Cl)c1` [Compound 226]: 39.507%.

For `Cc1cc(NC(=O)CN2C[C@@H]3C[C@H]2CN3CC(=O)NC(C)(C)C)ccc1F` [Compound 341], the “% Inhibition (Single Point Data)” value under setting [1] came out at 62.973%. The IC50 under setting [2] was 447 nM. For `O=C(CN1CC2CC(C1)N2CC(=O)NC1(C(F)(F)F)CC1)Nc1cc(F)c(F)c(Cl)c1` [Compound 349], the IC50 under setting [2] was < 78.2 nM. As to `CC(C)(C)NC(=O)CN1C2CC1CN(Cc1nc3c(C#N)cc(F)cc3[nH]1)C2` [Compound 114], the half-maximal inhibitory concentration (IC50) was < 78.2 nM. Further, the “% Inhibition (Single Point Data)” value under setting [1] is on record as 95.181%.

Turning to `Cc1cc(F)cc(NC(=O)CN2C[C@@H]3C[C@H]2CN3CC(=O)NC(C)(C)C)c1` [Compound 276], the “% Inhibition (Single Point Data)” value under setting [1] was 71.467%. The IC50 under setting [2] was 474 nM. The matching figures for `CC(C)(C)NC(=O)CN1CC2CC1CN2CC(=O)Nc1cc(Cl)ccc1F` (stereo not shown) [Compound 48]: 28.07% and 1340 nM. The matching figures for `Fc1cc(Cl)c2nc(CN3CC4CC(C3)N4CC3CCC(F)(F)CC3)[nH]c2c1` [Compound 98]: 92.211% and 231 nM. On the same counts, the results for `C[C@H](NC(=O)CN1C[C@@H]2C[C@H]1CN2CC(=O)NC(C)(C)C)C12CC3CC(CC(C3)C1)C2` [Compound 326] are 66.987% and 734 nM. On to `CC(C)(C)NC(=O)CN1CC2CC1CN2CC(=O)Nc1cc(F)cc(OC(F)F)c1` (stereo not shown) [Compound 231], for which the “% Inhibition (Single Point Data)” value under setting [1] amounted to 95.51%. In addition, under setting [2], the IC50 stood at 89.3 nM. As for `CC(C(=O)Nc1ccc(F)c(OC(F)F)c1)N1CC2CC(C1)N2CC(=O)NC(C)(C)C` (stereo not shown) [Compound 256], under setting [1], the “% Inhibition (Single Point Data)” value is 100.73%. For `O=C(CN1C[C@@H]2C[C@H]1CN2CCC1CCOCC1)NC12CC3CC(CC(C3)C1)C2` [Compound 291], under setting [1], the “% Inhibition (Single Point Data)” value was 18.238%. Also, under setting [2], the IC50 turned out to be 3330 nM.

As for `CC(C)(NC(=O)CN1C2CC1CN(CC(=O)Nc1cc(F)cc(Cl)c1)C2)C(F)(F)F` [Compound 129], the “% Inhibition (Single Point Data)” value under setting [1] was determined as 89.48%. Under setting [2], the IC50 came to 222 nM. As to `CC(C)(C)NC(=O)CN1C[C@H]2C[C@@H]1CN2CC(=O)Nc1cc(F)cc(OC(F)F)c1` [Compound 21], the “% Inhibition (Single Point Data)” value under setting [1] was 73.828%. The same measure, in the same setting: the figure for `O=C(CN1C2CCC1CN(Cc1nc3c(Cl)cc(F)cc3[nH]1)C2)N1CCC(O)CC1` [Compound 88] is 61.278%. For the compound `O=C(CN1C[C@@H]2C[C@H]1CN2CC(=O)NC1(C(F)(F)F)CC1)Nc1ccc(Cl)c(OC(F)F)c1` [Compound 358], under setting [2], the IC50 came to 172 nM.

On to `CC(C)(C)NC(=O)CN1C2CCC1CN(CC(=O)Nc1cc(F)cc(Cl)c1)C2` [Compound 3], for which the “% Inhibition (Single Point Data)” value under setting [1] worked out at 94.689%. Also, the IC50 under setting [2] stood at 273 nM.

As for `O=C(CN1CC2CC(C1)N2CC(=O)NC1(C(F)(F)F)CC1)Nc1cc(F)c(F)c(OC(F)F)c1` [Compound 361], the IC50 under setting [2] is 127 nM. Take `CC(C)Cc1cc(CNC(=O)CN2C[C@@H]3C[C@H]2CN3CC(=O)NC(C)(C)C)nn1-c1ccccc1` [Compound 302]: the “% Inhibition (Single Point Data)” value under setting [1] worked out at 21.003%. In addition, under setting [2], the half-maximal inhibitory concentration (IC50) stood at 3320 nM. On to `CC(C)(C)NC(=O)CN1CCCN(CC(=O)Nc2cc(F)cc(Cl)c2)C(=O)C1` [Compound 36], for which the “% Inhibition (Single Point Data)” value under setting [3] was determined as 45.763%.

Consider `COc1cccc(NC(=O)CN2CC3CC(C2)N3CC(=O)NC(C)(C)C)c1` [Compound 208], for which the “% Inhibition (Single Point Data)” value under setting [1] stood at 51.139%. In addition, the IC50 under setting [2] is 1010 nM. As to `CC(C)(C)NC(=O)CN1CC[C@H](CNc2nccc3ccc(Cl)cc23)CC1=O` [Compound 45], under setting [1], the “% Inhibition (Single Point Data)” value was 58.802%. As to `CC(C)(NC(=O)CN1C2CC1CN(Cc1nc3c(OC(F)F)ccc(F)c3[nH]1)C2)C(F)(F)F` [Compound 184], the “% Inhibition (Single Point Data)” value under setting [1] was 86.326%. Moreover, under setting [2], the IC50 was 200 nM. `CC(C)(C)NC(=O)CN1CCN(CC(=O)NC23CC4CC(CC(C4)C2)C3)C(=O)C1` [Compound 33]: the “% Inhibition (Single Point Data)” value under setting [3] was 54.403%. Consider `CC(C(=O)Nc1ccc(F)c(OC(F)F)c1)N1C[C@@H]2C[C@H]1CN2CC(=O)NC(C)(C)C` (stereo partly shown) [Compound 263], for which the “% Inhibition (Single Point Data)” value under setting [1] was 90.098%. Further, the 50% inhibitory concentration (IC50) under setting [2] came to 234 nM. Turning to `COCC1CN(CC(=O)NC(C)(C)C)CCN1CC(=O)Nc1cc(F)cc(Cl)c1` (stereo not shown) [Compound 42], the “% Inhibition (Single Point Data)” value under setting [3] stood at 62.5%. The IC50 under setting [2] came out at 627 nM. Regarding `CC(C)(C)NC(=O)CN1C2CCC1CN(Cc1nc3c(Cl)cc(C#N)cc3[nH]1)C2` [Compound 191], the “% Inhibition (Single Point Data)” value under setting [1] was 97.531%.
